In the NIST ThermoML archive (doi:10.1016/j.fluid.2015.09.031):
Numbers after ± are expanded uncertainties.

Conditions: Liquid, Ebulliometric method (Recirculating still)

CCCCCCC [heptane]
vapor or sublimation pressure (288.15 K): 3.63 ± 0.1 kPa
vapor or sublimation pressure (298.15 K): 6.095 ± 0.1 kPa
vapor or sublimation pressure (308.15 K): 9.865 ± 0.1 kPa

CC(C)(C)Cl [2-chloro-2-methylpropane]
vapor or sublimation pressure (288.15 K): 26.42 ± 0.11 kPa
vapor or sublimation pressure (298.15 K): 40.13 ± 0.11 kPa
vapor or sublimation pressure (308.15 K): 59.52 ± 0.12 kPa

CCCCCl [1-chlorobutane]
vapor or sublimation pressure (288.15 K): 8.4 ± 0.1 kPa
vapor or sublimation pressure (298.15 K): 13.52 ± 0.1 kPa
vapor or sublimation pressure (308.15 K): 21.04 ± 0.1 kPa

CCC(C)Cl (stereo not given) [2-chlorobutane]
vapor or sublimation pressure (288.15 K): 13.36 ± 0.1 kPa
vapor or sublimation pressure (298.15 K): 20.91 ± 0.1 kPa
vapor or sublimation pressure (308.15 K): 31.55 ± 0.11 kPa

CC(C)CCl [1-chloro-2-methylpropane]
vapor or sublimation pressure (288.15 K): 13 ± 0.1 kPa
vapor or sublimation pressure (298.15 K): 20.35 ± 0.1 kPa
vapor or sublimation pressure (308.15 K): 30.45 ± 0.11 kPa
